Patent US20080311126A1, “Antisense Oligonucleotides Directed to Ribonucleotide Reducatase R2 and Uses Thereof in Combination Therapies for the Treatment of Cancer” (Genesense Technologies, Inc, priority 2004, published 2008)
Oligonucleotides are written 5' to 3', each unit as a sugar letter and its base; * is a phosphorothioate linkage, no mark a phosphodiester; rarer units and linkages stand in square brackets, end groups in braces. Plain capitals give the bases only. d = 2'-deoxy (DNA)

How the values were obtained:
Assay in all cases: Relative colony forming efficiency (Example 17, Table 13)
Format in all cases: cell-based, human
[1] = tested on: T24 bladder cell carcinoma; details: averages of 2-8 determinations
Procedure: (§1) Colony forming efficiency was determined using standard protocols. […] The test oligonucleotides were added to cell cultures in the presence of 2.5 μg of DOTMA/DOPE (Lipofectin; Life Technologies, Inc.) for four hours. The oligonucleotide was tested at 0.2 μM unless otherwise indicated. Controls were the cultures treated with lipofectin but without the oligonucleotide. […] Surviving cells were visualized by methylene blue staining, and colonies were scored. In some experiments cell aliquots were removed from the culture and viability was determined using the trypan blue exclusion test. Results were analyzed as percent of surviving cells compared to control cells. To test the antisense effects of many of these sequences as phosphorthioate deoxyribonucleotides, they were examined in relative colony forming experiments conducted as described in Example 16 with a series of human tumour cell lines. The results (shown as % inhibition of colony forming ability) obtained with cancer cells derived from the bladder, breast, lung, colon, pancreas, prostate, liver and cervix, are shown in Table 13. The specific cell lines employed are as follows: […]

[2] = tested on: MDA PaCa-2 pancreatic cell carcinoma; details: MIA PaCa-2 pancreatic cell carcinoma; averages of 2-8 determinations
Procedure: as §1

[3] = tested on: PC-3 prostrate cell adenocarcinoma; details: averages of 2-8 determinations
Procedure: as §1

[4] = tested on: HCT116 colon cell carcinoma; details: averages of 2-8 determinations
Procedure: as §1

[5] = tested on: HepG2 hepatocellular carcinoma; details: averages of 2-8 determinations
Procedure: as §1

A549 lung cell carcinoma = details: averages of 2-8 determinations
Procedure: as §1

| Sequence | Reduced relative colony forming efficiency, T24 (% inhibition of colony forming ability) [1] | Reduced relative colony forming efficiency, MIA PaCa-2 (% inhibition of colony forming ability) [2] | Reduced relative colony forming efficiency, PC-3 (% inhibition of colony forming ability) [3] | Reduced relative colony forming efficiency, HCT116 (% inhibition of colony forming ability) [4] | Reduced relative colony forming efficiency, HepG2 (% inhibition of colony forming ability) [5] | Reduced relative colony forming efficiency, A549 (% inhibition of colony forming ability) (A549 lung cell carcinoma) |
| --- | --- | --- | --- | --- | --- | --- |
| AGCTGCTGCGGGTCCGTGAT (antisense dA*dG*dC*dT*dG*dC*dT*dG*dC*dG*dG*dG*dT*dC*dC*dG*dT*dG*dA*dT) [AS-II-225-20] | 73.23% | 95.44% | 30.06% | 59.5% |  |  |
| TGGGACAGGGTGCACGGGCG (antisense dT*dG*dG*dG*dA*dC*dA*dG*dG*dG*dT*dG*dC*dA*dC*dG*dG*dG*dC*dG) [AS-II-130-20] |  | 82.11% | 74.66% |  | 94.28% | 86.48% |
| GAAGCCATAGAAACAGCGGG (antisense dG*dA*dA*dG*dC*dC*dA*dT*dA*dG*dA*dA*dA*dC*dA*dG*dC*dG*dG*dG) [AS-II-667-20] | 70.48% | 85.26% | 91.8% |  | 88.23% | 70.3% |
| CCGTGGGCTCCTGGAAGATC (antisense dC*dC*dG*dT*dG*dG*dG*dC*dT*dC*dC*dT*dG*dG*dA*dA*dG*dA*dT*dC) [AS-II-344-20] |  |  | 80.06% |  |  |  |
| CCAGCACTATAAACAGACAG (antisense dC*dC*dA*dG*dC*dA*dC*dT*dA*dT*dA*dA*dA*dC*dA*dG*dA*dC*dA*dG) [AS-II-1517-20] |  |  | 91.75% |  |  |  |
| CGGCTCATCCTCCACGC (antisense dC*dG*dG*dC*dT*dC*dA*dT*dC*dC*dT*dC*dC*dA*dC*dG*dC) [AS-II-391-17] |  | 26.35% | 93.25% |  | 60.64% |  |
| GACGGCTGGGACAGGGTGCA (antisense dG*dA*dC*dG*dG*dC*dT*dG*dG*dG*dA*dC*dA*dG*dG*dG*dT*dG*dC*dA) [AS-II-134-20] |  |  | 77.51% |  |  |  |
| TTGTGTACCAGGTGTTTGAA (antisense dT*dT*dG*dT*dG*dT*dA*dC*dC*dA*dG*dG*dT*dG*dT*dT*dT*dG*dA*dA) [AS-II-1023-20] | 58.26% | 42.82% | 87.63% |  |  | 34.52% |
| CAAATGGGTTCTCTACTCTG (antisense dC*dA*dA*dA*dT*dG*dG*dG*dT*dT*dC*dT*dC*dT*dA*dC*dT*dC*dT*dG) [AS-II-1217-20] | 66.36% | 34.85% | 81.03% | 68.68% |  | 91.49% |
| AGCCTCTGCCTTCTTATACA (antisense dA*dG*dC*dC*dT*dC*dT*dG*dC*dC*dT*dT*dC*dT*dT*dA*dT*dA*dC*dA) [AS-II-472-20] | 69.26% | 97.13% | 90.7% | 67.23% |  | 96.99% |
